Experimental data reported in the supplement of paper PMC10307832.

Legend:
Test in all cases: relative viability (nuclei count vs DMSO), 5 days (fraction); higher = more cells survive
Midostaurin + Tozasertib = compound: CO[C@@H]1[C@H](N(C)C(=O)c2ccccc2)C[C@H]2O[C@]1(C)n1c3ccccc3c3c4c(c5c6ccccc6n2c5c31)C(=O)NC4 [Midostaurin] + Cc1cc(Nc2cc(N3CCN(C)CC3)nc(Sc3ccc(NC(=O)C4CC4)cc3)n2)n[nH]1 [Tozasertib] (partner 0.1 µM)
In short: (§1)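 Lung cancer cell lines in 1536-well plates got either a single drug or a fixed anchor-drug dose together with five library-drug doses (not always all listed) in √10 steps, by pin tool, on the day after seeding. Nuclei were counted after 5 days, and relative viability is the treated-to-vehicle ratio of nuclei counts. Values are medians of duplicate plates.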

Midostaurin + Olaparib = compound: CO[C@@H]1[C@H](N(C)C(=O)c2ccccc2)C[C@H]2O[C@]1(C)n1c3ccccc3c3c4c(c5c6ccccc6n2c5c31)C(=O)NC4 [Midostaurin] + O=C(c1cc(Cc2n[nH]c(=O)c3ccccc23)ccc1F)N1CCN(C(=O)C2CC2)CC1 [Olaparib] (partner 8 µM)
In short: as §1

[1] = compound: COc1cc(-c2nn([C@H]3CC[C@H](N4CCN(C(C)=O)CC4)CC3)c3ncnc(N)c23)ccc1NC(=O)c1cc2ccccc2n1C + CC(=O)c1c(C)c2cnc(Nc3ccc(N4CCNCC4)cn3)nc2n(C2CCCC2)c1=O [Palbociclib] (partner 0.5 µM)
In short: as §1

[2] = compound: COc1cc(-c2nn([C@H]3CC[C@H](N4CCN(C(C)=O)CC4)CC3)c3ncnc(N)c23)ccc1NC(=O)c1cc2ccccc2n1C + CC1(C)CCC(c2ccc(Cl)cc2)=C(CN2CCN(c3ccc(C(=O)NS(=O)(=O)c4ccc(N[C@H](CCN5CCOCC5)CSc5ccccc5)c(S(=O)(=O)C(F)(F)F)c4)cc3)CC2)C1 [Navitoclax] (partner 0.5 µM)
In short: as §1

[3] = compound: COc1cc(-c2nn([C@H]3CC[C@H](N4CCN(C(C)=O)CC4)CC3)c3ncnc(N)c23)ccc1NC(=O)c1cc2ccccc2n1C + C[C@]1(O)C[C@@H](c2nc(-c3ccc4ccc(-c5ccccc5)nc4c3)c3c(N)nccn32)C1 [Linsitinib] (partner 1 µM)
In short: as §1

Cell Line	relative viability (Midostaurin + Tozasertib; first compound 0.01 µM)	relative viability (Midostaurin + Tozasertib; first compound 0.03162 µM)	relative viability (Midostaurin + Tozasertib; first compound 0.1 µM)	relative viability (Midostaurin + Tozasertib; first compound 0.3162 µM)	relative viability (Midostaurin + Olaparib; first compound 0.01 µM)	relative viability (Midostaurin + Olaparib; first compound 0.03162 µM)	relative viability (Midostaurin + Olaparib; first compound 0.1 µM)	relative viability (Midostaurin + Olaparib; first compound 0.3162 µM)	relative viability ([1]; first compound 0.0128 µM)	relative viability ([1]; first compound 0.04048 µM)	relative viability ([1]; first compound 0.128 µM)	relative viability ([1]; first compound 1.28 µM)	relative viability ([2]; first compound 0.0128 µM)	relative viability ([2]; first compound 0.04048 µM)	relative viability ([2]; first compound 0.128 µM)	relative viability ([2]; first compound 1.28 µM)	relative viability ([3]; first compound 0.0128 µM)	relative viability ([3]; first compound 0.04048 µM)	relative viability ([3]; first compound 0.128 µM)	relative viability ([3]; first compound 1.28 µM)
HOP-62	0.363	0.431	0.303	0.321	0.321	0.452	0.414	0.372	0.503	0.468	0.411	0.432	1.06	1.18	0.825	1.1	0.955	0.964	0.881	0.843
HARA	0.142	0.0861	0.0946	0.0968	0.786	0.842	0.644	0.752	0.268	0.241	0.246	0.185	1.14	1.24	1.14	1	1	0.873	0.891	0.62
NCI-H838	0.271	0.283	0.262	0.286	0.748	0.839	0.511	0.229	0.222	0.208	0.216	0.181	1.26	1.18	1.23	0.859	0.974	1.1	1.06	0.657
IA-LM					0.746	0.653	0.748	0.881					0.87	1.08	0.87	0.968	0.606	0.299	0.698	0.815
NCI-H650	0.657	0.751	0.749	0.615	0.36	0.406	0.412	0.313	0.35	0.385	0.3	0.339					0.854	1.26	0.894	0.64
NCI-H1792					0.383	0.308	0.249	0.146	0.663	0.626	0.657	0.636	0.611	0.499	0.609	0.624	0.565	0.485	0.392	0.449
ChaGo-K-1	0.312	0.214	0.229	0.219	0.439	0.404	0.338	0.433	0.925	0.985	0.873	0.668	0.958	1.05	0.881	0.986				
NCI-H2342	0.57	0.487	0.551	0.538	0.419	0.394	0.422	0.489	0.503	0.487	0.517	0.514								
NCI-H1299					0.919	0.942	0.985	0.924					1.06	1.15	1.08	1.13	1.01	0.871	0.999	0.655
NCI-H1650	0.391	0.359	0.357	0.342	0.945	0.793	0.727	0.703	0.342	0.409	0.306	0.268	1.34	1.5	1.44	1.1				
SW 900	0.578	0.525	0.59	0.466	0.826	1.08	0.852	0.575	0.564	0.584	0.538	0.353								
NCI-H596	0.991	0.977	0.899	0.947	0.77	0.691	0.722	0.777					1.06	1.02	0.911	0.525	1.1	1.3	1.12	0.748
NCI-H1648	0.511	0.609	0.417	0.299	1.08			0.767	0.263	0.275	0.242	0.333								
NCI-H522	0.557	0.607	0.629	0.621	0.546	0.748	0.578	0.682	1.08	0.864	0.822	0.778								
A549					0.256	0.39	0.359	0.216					1.22	1.22	1.17	1.15	0.552	0.666	0.619	0.465
NCI-H2170	0.681	0.769	0.729	0.621	0.569	0.569	0.551	0.54	0.445	0.396	0.383	0.327	0.652	0.749	0.579	0.453				
NCI-H661	0.362	0.323	0.364	0.376	0.721	0.7	0.714	0.717	0.421	0.436	0.42	0.419					0.618	0.507	0.448	0.357
NCI-H1563																	1.24	1.12	1.31	0.903
ABC-1	0.146	0.191	0.174	0.201	0.691	1.31	0.59	0.928	0.646	0.84	0.391	0.469					0.709	0.887	0.749	0.697
LCLC-103H	0.522	0.45	0.456	0.379	0.746	0.813	0.717	0.805	0.509	0.474	0.433	0.503					1.12	1.21	0.957	1.01
